Measurements from patent publication US10487121B2, “D-peptide inhibitors of HIV entry and methods of use” (priority 2016, dated 2019).
Like-named read-outs stand apart in the source and are kept apart here.

Tests used:
[1] = Rodent pharmacokinetics of PIE12-trimer and conjugates (Table 3 protocol); format: in vivo, Sprague Dawley rats; details: rats, 1.0 mg/kg, plasma, median; for half-life: read-out: T1/2 (converted)
Procedure: At each timepoint, plasma was obtained using lithium heparin.
Samples were spiked with an internal standard then precipitated with two volumes of 98% acetonitrile/2% Formic acid. Supernatants were analyzed by LC/MS/MS using an Agilent HPLC system (Waters X-Bridge BEH C18 column) paired to an AB Sciex API 3000 triple-quad mass spectrometer using MRM methods. Lipid conjugates required lower source temperatures (300° C. vs 500° C.) for improved reproducibility.

[2] = target: HXB2 (X4) luciferase reporter pseudovirions on HOS-CD4-CXCR4; details: values marked * from Francis, et al. Bioconjugates, read-out: Antiviral potency HXB2 (IC50); cited from earlier work
[3] = target: JRFL (R5) luciferase reporter pseudovirions on HOS-CD4-CCR5; details: values marked * from Francis, et al. Bioconjugates, read-out: Antiviral potency JRFL (IC50); cited from earlier work

`CC(=O)N[C@H](Cc1c[nH]cn1)C(=O)N1CCC[C@@H]1C(=O)N[C@@H]1CSSC[C@H](C(=O)N[C@H](CCC(=O)O)C(=O)N[C@H](CC(C)C)C(=O)NCC(=O)N[C@H](CCCCNC(=O)CCOCCOCCOCCOCCNC(=O)CCOCC(N)(COCCC(=O)NCCOCCOCCOCCOCCC(=O)NCCCC[C@@H](NC(=O)CNC(=O)[C@@H](CC(C)C)NC(=O)[C@@H](CCC(=O)O)NC(=O)[C@H]2CSSC[C@@H](NC(=O)[C@H]3CCCN3C(=O)[C@@H](Cc3c[nH]cn3)NC(C)=O)C(=O)N[C@H](CC(=O)O)C(=O)N[C@H](Cc3ccc(O)cc3)C(=O)N3CCC[C@@H]3C(=O)N[C@H](CCC(=O)O)C(=O)N[C@H](Cc3c[nH]c4ccccc34)C(=O)N[C@H](CCC(N)=O)C(=O)N[C@H](Cc3c[nH]c4ccccc34)C(=O)N[C@H](CC(C)C)C(=O)N2)C(N)=O)COCCC(=O)NCCOCCOCCOCCOCCC(=O)NCCCC[C@@H](NC(=O)CNC(=O)[C@@H](CC(C)C)NC(=O)[C@@H](CCC(=O)O)NC(=O)[C@H]2CSSC[C@@H](NC(=O)[C@H]3CCCN3C(=O)[C@@H](Cc3c[nH]cn3)NC(C)=O)C(=O)N[C@H](CC(=O)O)C(=O)N[C@H](Cc3ccc(O)cc3)C(=O)N3CCC[C@@H]3C(=O)N[C@H](CCC(=O)O)C(=O)N[C@H](Cc3c[nH]c4ccccc34)C(=O)N[C@H](CCC(N)=O)C(=O)N[C@H](Cc3c[nH]c4ccccc34)C(=O)N[C@H](CC(C)C)C(=O)N2)C(N)=O)C(N)=O)NC(=O)[C@@H](CC(C)C)NC(=O)[C@@H](Cc2c[nH]c3ccccc23)NC(=O)[C@@H](CCC(N)=O)NC(=O)[C@@H](Cc2c[nH]c3ccccc23)NC(=O)[C@@H](CCC(=O)O)NC(=O)[C@H]2CCCN2C(=O)[C@@H](Cc2ccc(O)cc2)NC(=O)[C@@H](CC(=O)O)NC1=O` [PIE12-trimer] gave an AUC(0-inf) ([1]; rat, in vivo, IV) of 0.168 µM·h, a C0 ([1]; rat, in vivo, IV) of 275 nM and a clearance ([1]; rat, in vivo, IV, read-out: Cl (obs) (converted)) of 13.9 mL/min/kg. The half-life ([1]; rat, in vivo, IV) was 33 min, the Vd ([1]; rat, in vivo, IV, read-out: Vz (obs)) was 0.7 L/kg and the AUC(0-inf) ([1]; rat, in vivo, SC) was 0.208 µM·h. It also gave a Cmax ([1]; rat, in vivo, SC) of 80 nM, a Tmax ([1]; rat, in vivo, SC) of 30 min and a half-life ([1]; rat, in vivo, SC) of 48.6 min. For the same compound, the F ([1]; SC) was 96%, the IC50 [2] was 0.72 ± 0.04 nM and the IC50 [3] was 2.1 ± 0.28 nM.
